Reference: patent publication US4250162A, “Protein binding method” (priority 1979, dated 1981)
Where “and” joins values, the source holds several entries; their conditions need not be identical. Identical values can stand only once.

How the values were obtained:
[1] = system: rabbit anti-cortisol serum; assay: Competitive radioimmunoassay of cortisol in antiserum-coated plastic tubes (125I-cortisol tracer); format: binding
Experimental: Urine samples are prepared for extraction by adding 200 microliters of a well mixed 24-hour urine sample to each of two disposable glass test tubes, one marked "S" and the other "E". The "E" tube is to be used to determine the efficiency of cortisol extraction from the sample. 10 microliters of cortisol standard serum (60 μg%) are mixed with the contents of the "E" tube, and 1.0 ml of chilled methylene chloride is then added to all tubes. The tubes are capped and their contents agitated to aid in the extraction of cortisol into the methylene chloride layer. After separation of the organic phase, duplicate 100 microliter aliquots of the bottom (methylene chloride) layer of each "S" and "E" tube are carefully removed and added to corresponding plastic test tubes coated with rabbit anti-cortisol serum on their lower inner surfaces, also correspondingly labeled "S" and "E". The methylene chloride is then evaporated from the four plastic test tubes by passing a stream of dry air or nitrogen into the tubes or by a mild warming of the extract to about 37° C. The tubes containing dry cortisol residue as prepared above are then assayed as follows.
A set of plastic test tubes coated with rabbit anti-cortisol serum is numbered 1-12. The "S" and "E" tubes from the preparatory steps above are numbered 13-14 and 15-16, respectively. 0.01 ml of the reagents shown in Table 1 below are added to the designated tubes. The cortisol serum blank which is added to each "S" and "E" tube ensures that the protein content of all tubes is equal.
1.0 ml of ^125 I-Cortisol 3-(0-carboxymethyl)oxime-L-tyrosine in pH 7.0-7.2 phosphate buffered saline having an activity of about 0.033 μCi/ml is added to each tube with gentle mixing. All tubes are incubated in a constant temperature water bath for 45 minutes at 37° C. The contents are removed from the tubes by aspirating or decanting and the tubes counted in a gamma counter with the window suitably adjusted for iodine-125.

[2] = system: diphenylhydantoin rabbit antiserum; assay: Effect of organic solvents on antiserum-coated polypropylene tubes: residual binding of radioiodinated tracer, diphenylhydantoin antiserum; settings: tracer bound after solvent 3 hours at 50° C., tracer 45 minutes at 37° C.
Experimental: (§1) 1 ml of petroleum ether, benzene, ether, ethyl acetate or acetone was added to a selection of cortisol, thyroxine, diphenylhydantoin and estriol rabbit antiserum-coated polypropylene tubes. The solvent level in the tubes was sufficient to immerse the antiserum coated region at the bottom of the tubes. The solvents were equilibrated with atmospheric water vapor. The solvent-containing tubes were then incubated for 3 hours at 50° C. The excess solvent was poured off and the tubes were left overnight to allow the residual solvent to evaporate. Three sets of control tubes were prepared. One set was treated with water in the same manner as the organic solvents, while another set was heated in air for the same period as the liquid-treated tubes. A final set of tubes served as an untreated control. The residual capacity of the antiserum-coated tubes to bind the respective radioiodinated tracers was determined by adding a 1 ml solution of the tracer containing 0.01 μCi to each tube containing an antiserum coating specific for that tracer, incubating for 45 minutes at 37° C., carefully decanting the tracer solution and counting the radioactivity bound to the tubes. The percent binding was calculated by dividing the bound counts by the total counts added.

[3] = system: thyroxine rabbit antiserum; assay: Effect of organic solvents on antiserum-coated polypropylene tubes: residual binding of radioiodinated tracer, thyroxine antiserum; settings: tracer bound after solvent 3 hours at 50° C., tracer 45 minutes at 37° C.
Experimental: as §1

[4] = system: cortisol rabbit antiserum; assay: Effect of organic solvents on antiserum-coated polypropylene tubes: residual binding of radioiodinated tracer, cortisol antiserum; settings: tracer bound after solvent 3 hours at 50° C., tracer 45 minutes at 37° C.
Experimental: as §1

estriol rabbit antiserum = assay: Effect of organic solvents on antiserum-coated polypropylene tubes: residual binding of radioiodinated tracer, estriol antiserum; settings: tracer bound after solvent 3 hours at 50° C., tracer 45 minutes at 37° C.
Experimental: as §1

antitestosterone = assay: Standard curve for testosterone in antitestosterone-coated polypropylene tubes; format: binding; settings: serum standards 0.1, 0.3, 1, 3 and 10 ng testosterone/ml, ethyl acetate extraction; 45 minutes at 37° C.; semi-logarithmic plot
Experimental: 0.6 ml of serum standards containing 0.1, 0.3, 1, 3 and 10 ng testosterone/ml were mixed with 3 ml of ethyl acetate. The phases were allowed to separate and 0.5 of the ethyl acetate layer was added to each of duplicate antitestosterone-coated tubes. After the ethyl acetate was evaporated under a stream of nitrogen, 1 ml of phosphate buffered saline at pH 7.4 was added to each tube and the testosterone residue dissolved. Five minutes later 0.1 ml of ^125 I-labeled testosterone tracer was added to each tube. After incubation for 45 minutes at 37° C., the solution was aspirated from each tube and the bound radioactivity determined in conventional fashion. […] The plot was satisfactory for use in the assay of testosterone unknowns.

SMILES	% Binding [2] [%]	% Binding [3] [%]	% Binding [4] [%]	% Binding (estriol rabbit antiserum) [%]	also measured
C[C@]12CCC(=O)C=C1CC[C@@H]1[C@@H]2[C@@H](O)C[C@@]2(C)[C@H]1CC[C@]2(O)C(=O)CO [Cortisol, cortisol]					CPM Bound ([1]; Cortisol Serum Standard, 1.0 μg%, 100 pg/0.01 ml, 45 minutes at 37° C.): 26,030 CPM and 25,305 CPM; CPM Bound ([1]; Cortisol Serum Standard, 3.0 μg%, 300 pg/0.01 ml, 45 minutes at 37° C.): 22,083 CPM and 21,629 CPM; CPM Bound ([1]; Cortisol Serum Standard, 10 μg%, 1000 pg/0.01 ml, 45 minutes at 37° C.): 14,520 CPM and 14,698 CPM; CPM Bound ([1]; Cortisol Serum Standard, 25 μg%, 2000 pg/0.01 ml, 45 minutes at 37° C.): 8,980 CPM and 9,071 CPM; CPM Bound ([1]; Cortisol Serum Standard, 60 μg%, 6000 pg/0.01 ml, 45 minutes at 37° C.): 4,824 CPM and 5,025 CPM; CPM Bound ([1]; urine extract "E" tubes 15-16 (cortisol-spiked), with Cortisol Serum Blank, 0 μg%): 8,009 CPM and 7,526 CPM; CPM Bound ([1]; urine extract "S" tubes 13-14, with Cortisol Serum Blank, 0 μg%): 14,325 CPM and 15,110 CPM
CC(C)=O [Acetone, acetone]	43	36	55		
c1ccccc1 [Benzene, benzene]	34	52	56		
CCOC(C)=O [Ethyl Acetate, ethyl acetate]	38	41	54	62	
CCOCC [Ether, ether]	33	41	55	38	
C[C@]12CC[C@H]3[C@@H](CCC4=CC(=O)CC[C@@]43C)[C@@H]1CC[C@@H]2O [testosterone]					standard curve (bound radioactivity), in words (antitestosterone): virtually straight-line standard curve
